What all share (format): in vivo
In test [1] the test system is diamondback moth (Plutella xylostella). The test can be described thus: Test Method 4: sprayed cabbage leaves fed to second instar diamondback moth. As to conditions: 120 h, second instar larvae, after 5 days, 25°C, read-out: mortality of insects. The protocol: (§1) Next, an efficacy of the present compound on controlling harmful arthropods is shown by Test examples. The following tests in the test examples below were conducted at 25°C.
Test compounds are made to a formulation according to a similar method to that described in the Formulation example 1, and thereto is added water containing 0.03 v/v% of Shindain (registered trademark) to prepare a diluted solution containing a prescribed concentration of the test compound.
Cabbage (Brassicae oleracea) seedling (on the developmental stage of the second to third true leaf) is planted in a cup, and the diluted solutions are sprayed into the seedling at a ratio of 20 mL/seedling. Thereafter, the stem and leaf thereof are cut out and then is installed into a cup that is covered with filter paper on the bed of the cup. Five (5) diamondback moth (Plutella xylostella) at the second instar larval stage are released into the cup. After 5 days, the number of the surviving insects is counted, and the mortality of insects is calculated by the following equation. [formula]

Test [2] deals with Western corn rootworms (Diabrotica virgifera virgifera). Briefly: Test Method 5: corn seedling immersion, Western corn rootworm. As to conditions: 120 h, read-out: mortality of insects. The protocol: as §1
Each 1 mg of the test compounds is dissolved into 50 µL of a mixed solution of polyoxyethylene sorbitan monolaurate and acetone (polyoxyethylene sorbitan monolaurate: acetone = 5 : 95 (v/v ratio)). Thereto is added water containing 0.03% by volume of Shindain (registered trademark) to prepare a diluted solution containing a prescribed concentration of the test compound.
A young entire seedling of Corns (Zea mays) is immersed into the diluted solution for 30 seconds. Thereafter, each two grains of the seedlings are installed in a plastic petri dish ([…]), and 10 Western corn rootworms (Diabrotica virgifera virgifera) at the second instar larval stage are released into the dish. After 5 days, the number of the dead insects is counted, and the mortality of insects is calculated by the following equation. Mortality(%) = (Numberofdeadinsects/10) × 100 [formula]

Test [3] concerns diamondback moth (Plutella xylostella). The test can be described thus: Test Method 10: sprayed cabbage seedling, third instar diamondback moth (Formulation example 5). As to conditions: 144 h, third instar larvae, after 6 days, 25°C, read-out: controlling value. The protocol: (§2) The following tests in the test examples below were conducted at 25°C.
Cabbage (Brassicae oleracea) seedling (on the developmental stage of the third to fourth true leaf) is planted in a cup, and the diluted solutions are sprayed into the seedling at a ratio of 20 mL/seedling. Thereafter, ten (10) diamondback moth (Plutella xylostella) at the third instar larval stage are released onto the seedling. After 6 days, the number of the surviving insects is counted, and the mortality of insects is calculated by the following equation. [formula]

In test [4] the test system is cotton aphids (Aphis gossypii). Briefly: Test Method 1: foliar spray on cucumber seedling infested with cotton aphids (Formulation example 1). As to conditions: 120 h, spray 10 mL/seedling, examined after 5 days, 25°C, read-out: controlling value.
Test [5] deals with common house mosquitos (Culex pipiens pallens). The test can be described thus: Test Method 12: mosquito larvae released into diluted solution. As to conditions: 24 h, last instar larvae, after 1 day, 25°C, read-out: controlling value. The protocol:
as §2
Into the diluted solution, 30 common house mosquitos (Culex pipiens pallens) at the last instar larval stage are released, and after 1 day, the state of the house mosquito larvae is examined, and the mortality of insects is calculated by the following equation. [formula]

Test [6] deals with cotton aphids (Aphis gossypii). Briefly: Test Method 11: foliar spray on cucumber seedling infested with cotton aphids (Formulation example 5). As to conditions: 120 h, spray 10 mL/seedling, examined after 5 days, 25°C, read-out: controlling value.
Test [7] relates to cotton worm (Spodoptera litura). The test can be described thus: Test Method 3: sprayed cabbage leaves fed to second instar cotton worm. As to conditions: 120 h, second instar larvae, after 5 days, 25°C, read-out: mortality of insects. The protocol:
as §2
Cabbage (Brassicae oleracea) seedling (on the developmental stage of the second to third true leaf) is planted in a cup, and the diluted solutions are sprayed into the seedling at a ratio of 20 mL/seedling. Thereafter, the stem and leaf thereof are cut out and then is installed into a cup that is covered with filter paper on the bed of the cup. Five (5) cotton worm (Spodoptera litura) at the second instar larval stage are released into the cup. After 5 days, the number of the surviving insects is counted, and the mortality of insects is calculated by the following equation. [formula]

Test [8] shares this test system. Briefly: Test Method 9: sprayed cabbage seedling, third instar cotton worm (Formulation example 5). As to conditions: 144 h, third instar larvae, after 6 days, 25°C, read-out: controlling value. The protocol: as §2
Cabbage (Brassicae oleracea) seedling (on the developmental stage of the third to fourth true leaf) is planted in a cup, and the diluted solutions are sprayed into the seedling at a ratio of 20 mL/seedling. Thereafter, ten (10) cotton worm (Spodoptera litura) at the third instar larval stage are released onto the seedling. After 6 days, the number of the surviving insects is counted, and the mortality of insects is calculated by the following equation. [formula]

Test [9] deals with housefly (Musca domestica). Briefly: Test Method 8: coated container contact test, housefly. As to conditions: 24 h, 40 mg/m^2, female adults, after one (1) day, 25°C, read-out: mortality of insects. The protocol: as §1
Acetone solution in which test compounds are adjusted to 800 ppm are prepared, and the solution is poured into a container having an internal volume of 20 mL, and the solution is coated uniformly on an inner face of the container such that the test compound is made to be 40 mg/m^2, and the container is then dried.
Five (5) housefly (Musca domestica) female adults are placed in the container, and the cup is covered with the lid. After the prescribed timing is passed, the state of the housefly is examined, and the mortality of insects is calculated by the following equation. [formula]

This passage reports mortality results from EP4722205A1, “HETEROCYCLIC COMPOUND AND NOXIOUS ARTHROPOD-CONTROLLING COMPOSITION CONTAINING SAME” (Sumitomo Chemical Company, Limited, priority 2023, dated 2024).

In the case of `CCS(=O)(=O)c1c(C(=O)N(C)c2nc3ccc(C(F)(F)F)cc3s2)nc2ccc(I)cn12` [compound 26], the mortality at 500 ppm in [1] is at least 80%; in test [4] it was at least 90%. The mortality at 200 ppm in test [2] was at least 80%; in [3], at least 80%; in test [6], at least 90%. Also, the mortality at 50 ppm is at least 80% in [3] and at least 90% in test [6]. In addition, the mortality at 3.5 ppm in [5] is at least 90%.
Consider `CCS(=O)(=O)c1c(C(=O)N(C)c2nc3ccc(F)c(F)c3s2)nc2ccc(I)cn12` [compound 33], for which the mortality at 500 ppm in test [1] was at least 80%; in test [4] it was at least 90%; in [7], at least 80%. Also, the mortality at 200 ppm in [2] was at least 80%; in test [3], at least 80%; in test [6] it was at least 90%; in [8], at least 80%. Further, the mortality at 50 ppm in [3] is at least 80%; in test [6] it was at least 90%; in test [8], at least 80%. In [5], the mortality at 3.5 ppm is at least 90%. Moreover, the mortality at 40 mg/m2 in test [9] is at least 80%.
`CCS(=O)(=O)c1c(C(=O)N(C)c2nc3cc(F)c(F)cc3s2)nc2ccc(Br)cn12` [compound 43]: the mortality at 500 ppm in test [1] and in test [7] was at least 80% in each case. In addition, the results for the mortality at 200 ppm in test [6] and in test [8] were at least 90% and at least 80%, respectively. Besides, the mortality at 50 ppm in test [8] was at least 80%. The mortality at 40 mg/m2 in [9] is at least 80%.
Regarding `CCS(=O)(=O)c1c(C(=O)N(C)c2nc3c(F)c(F)c(F)c(F)c3s2)nc2ccc(I)cn12` [compound 77], the mortality at 500 ppm in [1] and in [7] was at least 80% throughout. Further, the mortality at 200 ppm in test [2] and in test [8] was at least 80% throughout. Moreover, the mortality at 50 ppm in test [8] was at least 80%. Further, in test [9], the mortality at 40 mg/m2 is at least 80%.
As for `CCS(=O)(=O)c1c(C(=O)N(C)c2nc3cc(Cl)c(F)cc3s2)nc2ccc(I)cn12` [compound 101], the mortality at 500 ppm in [1] was at least 80%. For the same molecule, the mortality at 200 ppm in test [2], in test [3] and in test [8] was at least 80% each time. In addition, the mortality at 50 ppm in [3] and in test [8] was at least 80% in each case.
With `CCS(=O)(=O)c1cc(-c2ncccn2)cnc1C(=O)N(C)c1nc2cc(F)c(F)cc2s1` [compound 111], the mortality at 500 ppm in test [1] is at least 80%; in [4], at least 90%; in test [7], at least 80%. Besides, the mortality at 50 ppm is at least 80% in [3], at least 90% in test [6] and at least 80% in test [8]. For the same molecule, the mortality at 200 ppm in test [3] is at least 80%; in test [6] it was at least 90%; in test [8], at least 80%. Besides, the mortality at 3.5 ppm in test [5] is at least 90%.
On to `CCS(=O)(=O)c1cc(C2CC2)cnc1C(=O)N(C)c1nc2cc(F)c(F)cc2s1` [compound 115], for which the mortality at 500 ppm in [1] was at least 80%; in [4], at least 90%; in test [7], at least 80%. The mortality at 50 ppm is at least 80% in test [3], at least 90% in test [6] and at least 80% in test [8]. Further, the figures for the mortality at 200 ppm in [3], in test [6] and in [8] were at least 80%, at least 90% and at least 80%, respectively. The mortality at 3.5 ppm in test [5] was at least 90%.
Consider `CCOc1cnc(C(=O)N(C)c2nc3cc(F)c(F)cc3s2)c(S(=O)(=O)CC)c1` [compound 125], for which the mortality at 500 ppm is at least 80% in [1], at least 90% in test [4] and at least 80% in test [7]. For the same molecule, the results for the mortality at 50 ppm in test [3], in test [6] and in [8] were at least 80%, at least 90% and at least 80%, respectively. Besides, the mortality at 200 ppm in [3] is at least 80%; in test [6], at least 90%; in test [8], at least 80%. The mortality at 3.5 ppm in test [5] was at least 90%.
`CCS(=O)(=O)c1ccc(-c2ncccn2)nc1C(=O)N(C)c1nc2cc(F)c(F)cc2s1` [compound 130]: the mortality at 500 ppm was at least 80% in test [1], at least 90% in [4] and at least 80% in test [7]. Besides, the values for the mortality at 50 ppm in test [3], in test [6] and in test [8] were at least 80%, at least 90% and at least 80%, respectively. The mortality at 200 ppm is at least 80% in test [3], at least 90% in test [6] and at least 80% in test [8]. In addition, in test [5], the mortality at 3.5 ppm was at least 90%.
Regarding `CCS(=O)(=O)c1ccc(NC)nc1C(=O)N(C)c1nc2cc(F)c(F)cc2s1` [compound 134], the mortality at 500 ppm in test [1] is at least 80%; in [4], at least 90%; in test [7] it was at least 80%. Also, the mortality at 50 ppm in test [3] was at least 80%; in [6], at least 90%; in test [8], at least 80%. In addition, the figures for the mortality at 200 ppm in [3], in test [6] and in test [8] were at least 80%, at least 90% and at least 80%, respectively. In test [5], the mortality at 3.5 ppm is at least 90%.
Consider `CCS(=O)(=O)c1ccc(NC)nc1C(=O)N(C)c1nc2cc(F)c(F)c(F)c2s1` [compound 138], for which the mortality at 500 ppm in test [1] was at least 80%; in test [4], at least 90%; in [7], at least 80%. Besides, the mortality at 50 ppm in test [3] was at least 80%; in [6] it was at least 90%; in [8], at least 80%. Besides, the mortality at 200 ppm in [3] was at least 80%; in test [6] it was at least 90%; in test [8], at least 80%. Moreover, the mortality at 3.5 ppm in [5] is at least 90%. For the same molecule, the mortality at 40 mg/m2 in test [9] was at least 80%.
With `CCS(=O)(=O)c1ccc(NC2CC2)nc1C(=O)N(C)c1nc2cc(F)c(F)c(F)c2s1` [compound 139], the mortality at 500 ppm in test [1] and in test [7] was at least 80% each time. Also, the results for the mortality at 50 ppm in test [3], in [6] and in test [8] were at least 80%, at least 90% and at least 80%, respectively. Moreover, the mortality at 200 ppm in test [3] was at least 80%; in test [6] it was at least 90%; in test [8], at least 80%. Moreover, the mortality at 3.5 ppm in [5] was at least 90%. Besides, in test [9], the mortality at 40 mg/m2 is at least 80%.
